Patent US9676822B2, “Oligopeptidic compounds and uses thereof” (APIM THERAPEUTICS AS, priority 2008, dated 2017)
Where a SMILES comes first, the peptide text is derived from it. Where no end group is shown, it is not given here. Side-chain parts run from the residue outwards. The star is where a group is joined. 5FAM = O=C1OC2(c3ccc(O)cc3Oc3cc(O)ccc32)c2ccc(C(=O)*)cc21; Ahx = NCCCCCC(=O)O

Columns and labels:
[1] = system: EYFP and hABH21-10-EYFP expressing cells; assay: Comet assay for DNA repair intermediates after treatment with alkylating agents; format: cell-based
Description: (§1) This is surprising since TMZ is believed to induce mainly O^6methyl-G which is repair by a direct repair mechanism by MGMT, not involving removal of any bases or strand breaks. […] The cells were still arrested in G2/M on day 3.

[2] = system: EYFP and hABH21-10-EYFP expressing cells; assay: Flow analysis of the cell cycle after treatment with alkylating agents; format: cell-based
Description: as §1

[3] = system: cell membranes; format: cell-based
Experimental: The cells were treated with different concentrations (2, 4 and 8 μM) of peptide for 1 hour. Next, propidium iodide (PI) (50 μg/ml in PBS) was added, this will stain DNA if the cell membranes are permeable. Analysis were done within the next 10 minutes on a FACS Canto flow cytometer (BD-Life Science).

[4] = system: HeLa cells; assay: MTT assay, peptide with cytostatic drugs (MMS, Cisplatin); format: cell-based
Experimental: The effects of the peptides in sensitising cells to the effects of cytostatic drugs were investigated using an MTT assay and a clonogenic assay (CFU assay) as described below.
HeLa cells were seeded into 96 well plates (6000 cells/well) and incubated for 3 hours. Various doses of MMS and Cisplatin were added to the wells. After 24 hours peptides were added to the cells in serum free media and incubated for 1 h. Fresh media with cytostatic drugs was added and the cells were harvested after additional 24, 48 and 72 hours. MTT was added to the cells (3-(4,5-Dimethylthiazol-2-yl)-2,5-diphenyltetrazolium bromide) and OD was measured at 570 nm [52], and the average from at least 6 wells was used to calculate cell survival. Data is presented as growth from one representative experiment and has been reproduced at least 2 times.

[5] = system: HeLa cells
Experimental: HeLa cells were seeded into 96 well plates (6000 cells/well) and incubated for 3 hours. Various doses of peptides were added to the wells in presence (filled diamonds) or absence of serum (filled square) in the media. After 1 h equal volume media with 10% or 20% serum (to serum free media) were added to the wells. The cells were incubated for 48 hours before measurement of cell survival by the MTT assay.
Cytotoxicity of the peptides was investigated by an MTT assay as described below, using the peptides alone, in the absence of cytostatic drugs. Cytotoxicity data was also obtained from controls used in the cytostatic drug MTT assays (controls with peptide but without cytostatic drug), where the control peptides were followed for longer (4 days).
Cytotoxicity of the peptides after 48 hours are measured using the MTT assay. HeLa cells were seeded into 96 well plates (6000 cells/well) and incubated for 3 hours. Various doses of peptides were added to the wells in presence or absence of serum in the media. After 1 h equal volume media with 1× or 2× (to serum free media) were added and the cells incubated for 48 hours before addition of MTT (see above).

[6] = target: T1, PCNA (Homo sapiens, UniProt P12004); assay: Co-immunoprecipitation and western analysis of endogenous PCNA; format: binding; conditions: anti-GFP immunoprecipitation, extracts of stably expressing cells
T1 construct: endogenous in cells; host or cells: HeLa cells stably expressing the EYFP fusion constructs; fractionated cell extracts
T1 sequence (P12004 whole entry, the tested form may be a part): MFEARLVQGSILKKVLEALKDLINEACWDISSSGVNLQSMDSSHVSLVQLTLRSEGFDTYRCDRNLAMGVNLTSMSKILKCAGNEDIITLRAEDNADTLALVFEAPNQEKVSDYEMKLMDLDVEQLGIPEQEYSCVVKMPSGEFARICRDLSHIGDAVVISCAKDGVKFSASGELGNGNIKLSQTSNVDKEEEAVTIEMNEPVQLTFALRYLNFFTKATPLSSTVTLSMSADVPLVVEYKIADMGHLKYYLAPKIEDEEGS
Experimental: HeLa (cervical cancer) and HaCaT (spontaneously transformed keratinocyte) cells stably expressing the constructs of interest were prepared by transfection (by Fugene 6) followed by cell sorting or cloning by dilution, and prolonged culturing in selective (using geneticin, G418, 400 μg/ml, Invitrogen) Dulbecco's modified Eagle's Medium high glucose 4.5 g/l (DMEM) (BioWhittaker®) supplemented with 10% Fetal Calf Serum (FCS), Amphotericin B (250 μg/ml, Sigma-Aldrich), gentamycin (100 μg/ml, Gibco) and glutamine (1 mM, BioWhittaker®). The cells were cultured at 37° C. in 5% carbon dioxide, humidified atmosphere. Fractionated cell extracts from HeLa were prepared by resuspending the cell pellets in 1× packed cell volume (PCV) in buffer I (10 mM Tris-HCl, pH 8.0 and 50 mM KCl) and 1×PCV in buffer II (10 mM Tris-HCl, 100 mM KCl, 20% glycerol, 0.5% Nonidet P-40, 10 mM EGTA, 10 mM MgCl2, 1 mM DTT, 1× Complete protease inhibitor (Roche), phosphates inhibitor cocktail (PIC I and PIC II, Sigma). Cells were incubated under constant shaking for 30 min at 4° C. The supernatant (soluble fraction) was harvested. The pellet (containing nuclei) was resuspended in 1×PCV of buffer III (10 mM Tris-HCl, pH 8.0 and 100 mM KCl) and 1×PCV buffer II, and briefly sonicated until all nuclei were disrupted. […]

[7] = target: T1, PCNA; assay: FRET measurement with ECFP-PCNA; format: cell-based; conditions: positive FRET: distance between tags less than 100 Å
Description: Fluorescent resonance energy transfer (FRET) occurs if the tags (EYFP and ECFP) are less than 100 Å (10 nm) apart. We detected FRET using the sensitised emission method, measuring acceptor (EYFP) emission upon donor (ECFP) excitation. We had FRET when the intensity of emitted light from EYFP after excitation of the ECFP fluorochrome was stronger than the light emitted by ECFP or EYFP-tagged proteins alone, after excitation with the EYFP and ECFP lasers respectively (bleed through), given by the equation: FRET=I2−I1 (ID2/ID1)−I3 (IA2/IA3) is >0. FRET was normalised for expression levels using the equation: NFRET=FRET/(I1×I3)^1/2. NFRET was calculated from mean intensities (I) within a region of interest (ROI) containing more than 25 pixels where all pixels had intensities below 250 and the average intensities were between 100 and 200 for both the donor and the acceptor constructs. Channel 1 (ECFP) and 3 (EYFP) were measured as described above for imaging, and channel 2 (FRET) was excitated with 2=458 nm and detected at λ=530-600 nm. ID1, D2, D3 and IA1, A2, A3 were determined for cells transfected with ECFP and EYFP constructs only, with same settings and same fluorescence intensities as co-transfected cells (I1 and I3). […]
To examine the degree of proximity of hABH2 and PCNA, fluorescence resonance energy transfer (FRET) was measured.

[8] = target: T1, PCNA; assay: Co-localisation of EYFP fusion constructs with ECFP-PCNA by confocal imaging; format: cell-based; conditions: co-expressed with ECFP-PCNA
Experimental: Confocal imaging and FRET measurements Live HeLa cells were examined 16-24 hours after transient transfection (by Fugene 6 (Roche Inc.) according to the manufacturer's recommendations) of ECFP and EYFP fusion constructs. Fluorescent images were acquired using a Zeiss LSM 510 Meta laser scanning microscope equipped with a Plan-Apochromat 63×/1.4 oil immersion objective. Enhanced cyan fluorescent protein (ECFP) was excited at λ=458 nm and detected at λ=470-500 nm and enhanced yellow fluorescent protein (EYFP) was excited at λ=514 nm and detected at λ=530-600 nm, using consecutive scans. The thickness of the slice was 1 μm.
PCNA tagged with cyan fluorescent protein (ECFP) was co-expressed with various hABH2 deletion constructs fused with yellow fluorescent protein (EYFP). […] (FIG. 1).

[9] = system: HaCaT (spontaneously transformed keratinocyte) cells; assay: Cell survival assay of HaCaT cells stably expressing the construct; format: cell-based
Experimental: (§2) HeLa and HaCaT cells were seeded into 96 well plates (4000 cells/well) and incubated for 4 hours. […] The U2OS cells were exposed to MMS and TMZ only. The cells were exposed continuously until harvest. Cells were harvested every day for 4 days using the MTT assay (Mosmann, 1983). OD was measured at 570 nm, and the average from at least 6 wells was used to calculate cell survival. Data presented is growth from one representative experiment and has been reproduced at least 2 times.

[10] = system: HeLa cells; assay: Cell survival assay (MTT) of HeLa cells expressing the construct, with alkylating agents; format: cell-based
Experimental: as §2, with “times. […] TZM is reported to be an O^6G methylating agent, while MMC causes interstrand cross links via N-alkylation of guanine in CpG's.” for “times.”

[11] = HeLa cells expressing the construct

With `O=NN(CCCl)C(=O)NCCCl` [BCNU, 1,3-Bis(2-chloroethyl)-1-nitrosourea] the “DNA repair intermediates (abasic sites, SSB, DSB)” value (“DNA repair intermediates” for short) [1] was “very low levels of repair intermediates” and the cell cycle effect [2] was “transient G2/M arrest on day 1”.
For `CC[C@H](C)[C@H](NC(=O)[C@H](CCCCN)NC(=O)[C@@H](NC(=O)[C@H](CCC(N)=O)NC(=O)[C@H](CCCNC(=N)N)NC(=O)[C@H](CC(C)C)NC(=O)[C@@H](NC(=O)[C@H](CCCCN)NC(=O)[C@H](CCCNC(=N)N)NC(=O)[C@H](CCCCN)NC(=O)[C@H](CCCCN)NC(=O)[C@H](CCCCN)NC(=O)[C@@H]1CCCN1C(=O)[C@H](CCC(N)=O)NC(=O)[C@H](C)NC(=O)CNC(=O)[C@H](CCCCN)NC(=O)[C@@H](NC(=O)[C@H](CC(C)C)NC(=O)[C@H](Cc1c[nH]c2ccccc12)NC(=O)[C@H](CCCNC(=N)N)NC(=O)[C@H](CC(=O)O)NC(=O)[C@@H](N)CCSC)C(C)C)C(C)C)[C@@H](C)CC)C(=O)N[C@@H](Cc1c[nH]c2ccccc12)C(=O)N[C@@H](Cc1ccccc1)C(=O)N[C@@H](CCC(N)=O)C(=O)N[C@@H](CC(N)=O)C(=O)N[C@@H](CCCNC(=N)N)C(=O)N[C@@H](CCCNC(=N)N)C(=O)N[C@@H](CCSC)C(=O)N[C@@H](CCCCN)C(=O)N[C@@H](Cc1c[nH]c2ccccc12)C(=O)N[C@@H](CCCCN)C(=O)N[C@@H](CCCCNC(=O)CCCCCNC(=O)c1ccc2c(c1)C(=O)OC21c2ccc(O)cc2Oc2cc(O)ccc21)C(=O)NCC(=O)O` [MDR2] (H-MDRWLVKGAQPKKKRKVLRQIKIWFQNRRMKWKK([Ahx-5FAM])G-OH), the “membrane toxicity” value [3] was “membrane toxicity is low”.
For `COS(C)(=O)=O` [MMS, methyl methanesulfonate], the “DNA repair intermediates” value [1] was “highest levels of DNA repair intermediates after 4 hours” and the cell cycle effect [2] was “S-phase arrest”.
`Cn1nnc2c(C(N)=O)ncn2c1=O` [TMZ, 4-methyl-5-oxo-2,3,4,6,8-pentazabicyclo [4.3.0] nona-2,7,9-triene-9-carboxamide] was tested, and the “DNA repair intermediates” value [1] was “highest levels of repair intermediates after 4 hours” and the cell cycle effect [2] was “arrested in G2/M up to day 3”.
In the case of “Ac-MDRWLVKWKKKRKIRRRRRRRRRRR [MDR26-72-0]”, the “activity in the MTT assay” value [4] is reported as “good activity”.
“MDRWLVKRIWKKKRKIIRQIKIWFQNRRMKWKK-Ahx5-FAM)G (not fully specified (residue 33, C-terminus); printed as MDRWLVKRIWKKKRKIIRQIKIWFQNRRMKWKK-Ahx5-FAM)G; also: Ahx5-FAM label and G at C-terminal end, arrangement unclear) [MDR26-8]” was tested, and the Cytotoxicity [5] was “+”.
For “hABH21-10-EYFP: the 10 N-terminal amino acids of hABH2 fused to EYFP, expressed in cells (MDRFLVKGAQ; not fully specified (C-terminus); also: fused to EYFP, expressed in cells)”, the “pull-down of endogenous PCNA” value [6] was “pulled down”, the “FRET with ECFP-PCNA” value [7] was “positive FRET” and the “co-localisation with PCNA in replication foci” value [8] was “sufficient for co-localisation with PCNA”. The “sensitivity to MMS and TMZ” value [9] was “hypersensitive to MMS and TMZ”, the “sensitisation to MMS” value [10, 11] was “sensitised HeLa cells to treatment with MMS” and the “sensitisation to the other cytostatic agents (BCNU, TZM, MMC)” value [10, 11] was “sensitised HeLa cells to all of the other cytostatic agents tested”. For the same compound, the “growth rate of untreated cells” value ([10]; over-expression, no cytostatic agent) was “did not interfere with the growth rate of untreated cells”.
